Data: US12240857B2 (priority 2017, dated 2025)
Like-named read-outs stand apart in the source and are kept apart here.

Tests used:
[1] = tested on: BDBV mucin-domain-deleted glycoprotein pseudotyped VSV; assay: microbe, parasite or virus in culture; type: cell-based, Bundibugyo ebolavirus; settings: Vesicular stomatitis virus, Vero, read-out: EC50 BDBV
in vitro = settings: African green monkey, CC50
[2] = tested on: EBOV mucin-domain-deleted glycoprotein pseudotyped VSV; assay: microbe, parasite or virus in culture; type: cell-based, Zaire ebolavirus; settings: Zaire ebolavirus, Vero, read-out: EC50 EBOV

Row | SMILES | EC50 [1] | CC50 (in vitro) | EC50 [2] | EC50 ([1]; 24 h) | EC50 ([2]; 24 h)
1 | O=C(N1CCC2(CCN(Cc3ccccc3)C2)C1)C12CC3CC(C1)CC(c1ccccc1)(C3)C2 (stereo not shown) [Example A1, 2-benzyl-7-[(3-phenyladamantan-1-yl)carbonyl]-2,7-diazaspiro[4.4]nonane] | 250 nM | 5800 nM | 220 nM | – | –
2 | O=C(CNC(=O)C12CC3CC(C1)CC(c1ccccc1)(C3)C2)N1CCC2(CCN(Cc3ccccc3)C2)C1 (stereo not shown) [Example A2] | 390 nM | 8500 nM | 300 nM | – | –
3 | COC(=O)c1ccc(COc2ccccc2CN2CCN(C(=O)CNC(=O)C34CC5CC(C3)CC(c3ccccc3)(C5)C4)CC2)cc1 [Example A3] | 1240 nM | > 3000 nM | 30 nM | – | –
4 | COC(=O)c1ccc(COc2ccccc2CN2CCN(C(=O)CNC(=O)CC34CC5CC(C3)CC(c3ccccc3)(C5)C4)CC2)cc1 [Example A4] | 1240 nM | > 3000 nM | 190 nM | – | –
5 | COC(=O)c1ccc(COc2ccccc2CN2CCN(C(=O)CNC(=O)C34CC5CC(CC3C5)C4)CC2)cc1 [Example A5] | 3900 nM | > 3000 nM | 1400 nM | – | –
6 | O=C(CNC(=O)C12CC3CC(C1)CC(c1ccccc1)(C3)C2)NC1CCN(Cc2ccccc2)CC1 [Example A6] | 250 nM | 16800 nM | 210 nM | – | –
7 | O=C(CNC(=O)C12CC3CC(C1)CC(c1ccccc1)(C3)C2)N[C@@H]1CCN(Cc2ccccc2)C1 [Example A7] | 840 nM | > 10000 nM | 480 nM | – | –
8 | O=C(CNC(=O)C12CC3CC(C1)CC(c1ccccc1)(C3)C2)N1CC2CC1CN2Cc1ccccc1 (stereo not shown) [Example A8] | 220 nM | > 10000 nM | 190 nM | – | –
9 | O=C(N1CC2(CN(Cc3ccccc3)C2)C1)C12CC3CC(C1)CC(c1ccccc1)(C3)C2 [Example A9] | 290 nM | 10800 nM | 230 nM | – | –
10 | O=C(N1CC2(CCN(Cc3ccccc3)C2)C1)C12CC3CC(C1)CC(c1ccccc1)(C3)C2 [Example A10] | 210 nM | 6900 nM | 240 nM | – | –
11 | O=C(CC12CC3CC(C1)CC(c1ccccc1)(C3)C2)NCC(=O)NC1CCN(Cc2ccccc2)CC1 [Example A12] | 430 nM | 2500 nM | 360 nM | – | –
12 | O=C(CC12CC3CC(C1)CC(c1ccccc1)(C3)C2)NCC(=O)N[C@@H]1CCN(Cc2ccccc2)C1 [Example A13] | 320 nM | 2300 nM | 320 nM | – | –
13 | O=C(CC12CC3CC(C1)CC(c1ccccc1)(C3)C2)NCC(=O)N1CC2CC1CN2Cc1ccccc1 (stereo not shown) [Example A14] | 230 nM | 6200 nM | 200 nM | – | –
14 | O=C(N[C@H]1CCN(Cc2ccccc2)C1)C12CC3CC(C1)CC(c1ccccc1)(C3)C2 [Example A15] | 2600 nM | > 10000 nM | 1700 nM | – | –
15 | O=C(CNC(=O)C12CC3CC(C1)CC(c1ccccc1)(C3)C2)N1CCN(Cc2ccccc2)CC1 [Example A16] | 350 nM | 12900 nM | 110 nM | – | –
16 | O=C(CC12CC3CC(C1)CC(c1ccccc1)(C3)C2)NCC(=O)N1CCN(Cc2ccccc2)CC1 [Example A17] | 480 nM | > 10000 nM | 930 nM | – | –
17 | O=C(N[C@@H]1CCN(Cc2ccccc2)C1)C12CC3CC(C1)CC(c1ccccc1)(C3)C2 [Example A19] | 440 nM | 3900 nM | 290 nM | – | –
18 | O=C(N1CC2CC1CN2Cc1ccccc1)C12CC3CC(C1)CC(c1ccccc1)(C3)C2 (stereo not shown) [Example A20] | 410 nM | 10600 nM | 490 nM | – | –
19 | O=C(CC12CC3CC(C1)CC(c1ccccc1)(C3)C2)N[C@@H]1CCN(Cc2ccccc2)C1 [Example A24] | 290 nM | 7200 nM | 290 nM | – | –
20 | CN1CCN(C(=O)C23CC4CC(C2)CC(c2ccccc2)(C4)C3)CC1 [Example A25] | 190 nM | > 10000 nM | 450 nM | – | –
21 | CN1CCC(N(C)C(=O)C23CC4CC(C2)CC(c2ccccc2)(C4)C3)CC1 [Example A27] | 140 nM | > 10000 nM | 280 nM | – | –
22 | O=C(N1CCN(Cc2ccccc2)CC1)C12CC3CC(CC1C3)C2 [Example A28] | > 10000 nM | > 10000 nM | > 10000 nM | – | –
23 | O=C(N1CCN(Cc2ccccc2)CC1)C12CC3CC(C1)CC(c1ccccc1)(C3)C2 [Example A29] | 270 nM | 5800 nM | 340 nM | – | –
24 | O=C(CC12CC3CC(C1)CC(c1ccccc1)(C3)C2)N1CCN(Cc2ccccc2)CC1 [Example A30] | 220 nM | 7500 nM | 340 nM | – | –
25 | O=C(C1C2CC3CC(C2)CC1C3)N1CCN(Cc2ccccc2)CC1 (stereo not shown) [Example A31] | > 10000 nM | > 10000 nM | > 10000 nM | – | –
26 | O=C(CC12CC3CC(C1)CC(c1ccccc1)(C3)C2)NC1CCN(Cc2ccccc2)CC1 [Example A32] | 260 nM | 1600 nM | 200 nM | – | –
27 | O=C(CC12CC3CC(C1)CC(c1ccccc1)(C3)C2)N1CC2CC1CN2Cc1ccccc1 (stereo not shown) [Example A33] | 300 nM | 2200 nM | 320 nM | – | –

Row | SMILES | EC50 [1] | CC50 (in vitro) | EC50 [2] | EC50 ([1]; 24 h) | EC50 ([2]; 24 h)
28 | O=C(N[C@@H]1CCCN(Cc2ccccc2)C1)C12CC3CC(C1)CC(c1ccccc1)(C3)C2 [Example A34] | 220 nM | 1100 nM | 170 nM | – | –
29 | CN1CC(NC(=O)C23CC4CC(C2)CC(c2ccccc2)(C4)C3)C1 [Example A35] | 220 nM | > 10000 nM | 280 nM | – | –
30 | O=C(NC1CN(Cc2ccccc2)C1)C12CC3CC(C1)CC(c1ccccc1)(C3)C2 [Example A36] | 300 nM | 4300 nM | 510 nM | – | –
31 | CN1CC[C@@H](NC(=O)C23CC4CC(C2)CC(c2ccccc2)(C4)C3)C1 [Example A37] | 240 nM | > 10000 nM | 230 nM | – | –
32 | CN1CCC[C@@H](NC(=O)C23CC4CC(C2)CC(c2ccccc2)(C4)C3)C1 [Example A38] | 190 nM | > 10000 nM | 250 nM | – | –
33 | CN1CC(NC(=O)CC23CC4CC(C2)CC(c2ccccc2)(C4)C3)C1 [Example A39] | 210 nM | 19100 nM | 510 nM | – | –
34 | CN1CC[C@@H](NC(=O)C23CC4CC(C)(C2)CC(c2ccccc2)(C4)C3)C1 (stereo partly shown) [Example A41] | 180 nM | 13600 nM | 103 nM | – | –
35 | CN1CC(NC(=O)C23CC4CC(C)(C2)CC(c2ccccc2)(C4)C3)C1 (stereo not shown) [Example A42] | 190 nM | 13900 nM | 121 nM | – | –
36 | CC12CC3CC(C(=O)N[C@@H]4CN5CCC4CC5)(C1)CC(c1ccccc1)(C3)C2 (stereo partly shown) [Example A44] | 190 nM | 11000 nM | 90 nM | – | –
37 | CN(C)CCNC(=O)C12CC3CC(C)(C1)CC(c1ccccc1)(C3)C2 (stereo not shown) [Example A46] | 210 nM | 13500 nM | 180 nM | – | –
38 | CC12CC3CC(C(=O)NCCN4CCOCC4)(C1)CC(c1ccccc1)(C3)C2 (stereo not shown) [Example A48] | 2000 nM | 54900 nM | 1040 nM | – | –
39 | O=C(N1CCC(NCc2ccccc2)CC1)C12CC3CC(C1)CC(c1ccccc1)(C3)C2 [Example A49, N-Benzyl-1-[(3-phenyladamantan-1-yl)carbonyl]piperidin-4-amine] | 290 nM | 10000 nM | 210 nM | – | –
40 | O=C(CC12CC3CC(CC(C3)C1)C2)N1CCC2(CCN(Cc3ccccc3)C2)C1 (stereo not shown) [Example A50, 2-(Adamantan-1-yl)-1-{7-benzyl-2,7-diazaspiro[4.4]nonan-2-yl}ethan-1-one] | 3300 nM | 54900 nM | 2900 nM | – | –
41 | O=C(CC12CC3CC(CC(C3)C1)C2)NC1CCN(Cc2ccccc2)CC1 [Example A51] | > 10000 nM | 10000 nM | 9000 nM | – | –
42 | O=C(CC12CC3CC(CC(C3)C1)C2)N[C@@H]1CCN(Cc2ccccc2)C1 [Example A52] | 4000 nM | > 10000 nM | 4900 nM | – | –
43 | O=C(CC12CC3CC(CC(C3)C1)C2)NCC(=O)NC1CCN(Cc2ccccc2)CC1 [Example A54] | 10000 nM | > 10000 nM | 4000 nM | – | –
44 | COC(=O)c1ccc(COc2ccccc2CN2CCC(NC(=O)CNC(=O)CC34CC5CC(CC(C5)C3)C4)CC2)cc1 [Example A55] | 2600 nM | > 10000 nM | 2900 nM | – | –
45 | O=C(CC12CC3CC(CC(C3)C1)C2)NCC(=O)N[C@@H]1CCN(Cc2ccccc2)C1 [Example A56] | 10000 nM | > 10000 nM | 3100 nM | – | –
46 | COC(=O)c1ccc(COc2ccccc2CN2CC3CC2CN3C(=O)CNC(=O)CC23CC4CC(CC(C4)C2)C3)cc1 (stereo not shown) [Example A58] | 8000 nM | > 10000 nM | 650 nM | – | –
47 | NC1CCN(C(=O)C23CC4CC(C2)CC(c2ccccc2)(C4)C3)CC1 [Example A61] | 80 nM | > 10000 nM | 140 nM | – | –
48 | O=C(N1CC2CCNC2C1)C12CC3CC(C1)CC(c1ccccc1)(C3)C2 (stereo not shown) [Example A62] | 110 nM | 30000 nM | 160 nM | – | –
49 | O=C(N1CCC2(CCNC2)C1)C12CC3CC(C1)CC(c1ccccc1)(C3)C2 (stereo not shown) [Example A64] | 180 nM | > 10000 nM | 710 nM | – | –
50 | O=C(N1CC2CC1CN2)C12CC3CC(C1)CC(c1ccccc1)(C3)C2 (stereo not shown) [Example A65] | 90 nM | > 10000 nM | 90 nM | – | –
51 | O=C(N1CCCNCC1)C12CC3CC(C1)CC(c1ccccc1)(C3)C2 [Example A66] | 100 nM | > 10000 nM | 160 nM | – | –
52 | c1ccn2c(CN3CCCCC3)c(C34CC5CC(CC(C5)C3)C4)nc2c1 [Example D37] | – | – | – | 3200 nM | 8900 nM
53 | C#CCN1CCC(C(=O)Nc2cc(C34CC5CC(CC(C5)C3)C4)n[nH]2)CC1 [Example D38, N-[5-(adamantan-1-yl)-1H-pyrazol-3-yl]-1-(prop-2-yn-1-yl) piperidine-4-carboxamide] | – | – | – | 6800 nM | 3700 nM
